Experimental findings from patent publication US7632813B2, “Bone densifying agent characterized by use of cathepsin K inhibitor with PTH” (Ono Pharmaceutical Co., Ltd., priority 2004, dated 2009) are described below.

Holding throughout (format): in vivo
Assay [1] deals with ovariectomized rat osteoporosis model (OVX). Description: Experiment 2 (administration schedule 2): BMD of tibia by pQCT in OVX rats. The following applies: Experiment 2, FIG. 5; for BMD of the tibia on the 83rd day, each alone: 83 days from next day of OVX, sole administration.
The test system is the same in assay [2]. Description: Experiment 1 (administration schedule 1): BMD of left proximal tibia by pQCT in OVX rats. The following applies: for BMD of the left leg tibia (4 mm slice from proximal end) at intermediate autopsy: Experiment 1, FIG. 1, oral sole administration from next day of OVX, intermediate autopsy 56 days after OVX; for BMD of the left leg tibia on the 83rd day, in combination with PTH / BMD of the left leg tibia on the 83rd day, each alone: Experiment 1, FIG. 3; for BMD of the left leg tibia on the 83rd day, in combination with PTH: bone resorption inhibitor 83 days orally plus PTH 10 μg/kg s.c. from 57th day, versus PTH alone; for BMD of the left leg tibia on the 83rd day, each alone: sole administration, OVX-induced BMD loss. The source says: (§1) For the purpose of clarifying the characteristics, the effect of a cathepsin K inhibitor (a bone resorption inhibitor) in combination with a type of PTH (a bone formation stimulator) was examined using an ovariectomized rat osteoporosis model (abbreviated as OVX hereafter). The effect of a bisphosphonate (BP) in combination with a type of PTH was also examined. The effects were compared with each other.
(§2) In the following examples, PTH (1-34) is abbreviated as PTH unless specified. 2) Test Method Experiment 1 (Administration Schedule 1): Administration in Combination with PTH After Repeated Administration of Bone Resorption Inhibitor
(§3) Female retired rats (F344/NSlc) were used. At the age of 6 months, 87 rats were assigned to OVX (ovariectomy) and the other 10 rats were assigned to sham operation.
(§4) Another 15 rats were assigned to OVX and 5 rats were assigned to sham operation, in order to these groups to an autopsy in the course.
(§5) To the group the compound was administered; a bone resorption inhibitor was administered orally from the next day of OVX over a period of 83 days.
[…] Other groups to which the compound was administered, a bone resorption inhibitor was administered orally, and PTH or vehicle (saline containing 0.1% BSA) was administered subcutaneously, 55 days after OVX. […] The interval between the first and the second administration was 5-7 hours.
(§6) PTH was administered by subcutaneous injection from the back three times a week by a dose of 10 μg/kg from the 57th day after OVX. The drugs were administed according to the grouping of table 1.
(§7) In the group in which the compound was administered, on the 83rd day after OVX, BMD of tibia, lumbar BMD, concentration of urinary C-terminal telopeptide of type I collagen (CTX) and serum osteocalcin (OC) were measured. In the autopsy groups, concentration of urinary CTX and serum OC were measured on samples from the 55th day.
The BMD was determined by measurement device of peripheral BMD (pQCT: peripheral Quantitative Computed Tomography, XCT-Research SA+Stratec Medizintechnik GmbH, version 5.40) with voxel size 0.12 mm. The BMD of the left proximal tibia (at a point 4 mm from the proximal end) was measured.
(§8) In order to compare the sham group and the OVX control group, t-test (EXSAS (version 6.1), ARM SYSTEX CO., LTD.); in order to compare the effectiveness of the test compounds, Tukey test (EXSAS (version 6.1), ARM SYSTEX CO., LTD.), were used respectively. Less than 5% was assumed to be a significant difference.

Assay [3] has the same test system. Description: Experiment 1: urinary CTX concentration, bone resorption marker, in OVX rats. As to conditions: Experiment 1, FIG. 4; for urinary CTX concentration on the 83rd day, combination administration with PTH: in combination with PTH. The source says:
For the purpose of clarifying the characteristics, the effect of a cathepsin K inhibitor (a bone resorption inhibitor) in combination with a type of PTH (a bone formation stimulator) was examined using an ovariectomized rat osteoporosis model (abbreviated as OVX hereafter). The effect of a bisphosphonate (BP) in combination with a type of PTH was also examined. The effects were compared with each other. • (1) a solution of the compound (I): […] In the following examples, PTH (1-34) is abbreviated as PTH unless specified. 2) Test Method Experiment 1 (Administration Schedule 1): Administration in Combination with PTH After Repeated Administration of Bone Resorption Inhibitor Female retired rats ([…] used. At the age of 6 months, 87 rats were assigned to OVX (ovariectomy) and the other 10 rats were assigned to sham operation. To the group the compound was administered; a bone resorption inhibitor was administered orally from the next day of OVX over a period of 83 days. […] On 55 days after OVX, the autopsy was done in autopsy group. Other groups to which the compound was administered, a bone resorption inhibitor was administered orally, and PTH or vehicle (saline containing 0.1% BSA) was administered subcutaneously, 55 days after OVX. […] The interval between the first and the second administration was 5-7 hours. PTH was administered by subcutaneous injection from the back three times a week by a dose of 10 μg/kg from the 57th day after OVX. The drugs were administed according to the grouping of table 1. In the group in which the compound was administered, on the 83rd day after OVX, BMD of tibia, lumbar BMD, concentration of urinary C-terminal telopeptide of type I collagen (CTX) and serum osteocalcin (OC) were measured. In the autopsy groups, concentration of urinary CTX and serum OC were measured on samples from the 55th day. Urine was collected before the day of an autopsy, and urinary CTX was measured with a kit for rat CTX measurement (RatLaps ELISA; nordicbioscience). In measurement of absorbance, microplate reader (SPECTRA MAX 250, Japan Molecular Devices Inc.) was used. […] In order to compare the sham group and the OVX control group, […] CO., LTD.); in order to compare the effectiveness of the test compounds, Tukey test ([…] CO., LTD.), were used respectively. Less than 5% was assumed to be a significant difference.

Assay [4] shares this test system. Description: Experiment 2: urinary CTX concentration in OVX rats. As to conditions: Experiment 2, FIG. 6.
The test system is the same in assay [5]. Nature of the assay: Experiment 1: serum osteocalcin (OC) concentration, bone formation marker, in OVX rats. The following applies: for serum OC concentration (bone formation marker) at intermediate autopsy: Experiment 1, FIG. 2, repeated oral administration for 55 days; for serum OC concentration on the 83rd day, in combination with PTH: combination with PTH compared with PTH sole administration.
Description: as §1, §2, §3, §4, §5
On 55 days after OVX, the autopsy was done in autopsy group. Other groups to which the compound was administered, a bone resorption inhibitor was administered orally, and PTH or vehicle (saline containing 0.1% BSA) was administered subcutaneously, 55 days after OVX. […] The interval between the first and the second administration was 5-7 hours.
as §6, §7
Fifty-five days after administration, in the autopsy, collected serum was used to measure the serum OC concentration with a kit for OC measurement (BIOTRAK; Osteocalcin, rat ELISA system).
as §8

Where no end group is shown, it is not given here.

Take `NCCCC(O)(P(=O)(O)O)P(=O)(O)O` [ALN, Alendronate sodium hydrate]: the “BMD of the tibia on the 83rd day, each alone” value (“BMD of the tibia” for short) in assay [1] was “inhibited the reduction of BMD of tibia caused by OVX”. Also, in assay [2], the “BMD of the left leg tibia (4 mm slice from proximal end) at intermediate autopsy” value is given as “showed an increasing effect of BMD in the tibia”; the “BMD of the left leg tibia on the 83rd day, in combination with PTH” value is on record as “did not show any additive effect”; the “BMD of the left leg tibia on the 83rd day, each alone” value is on record as “suppressed the OVX-induced BMD loss in the tibia”. Besides, in assay [3], the “urinary CTX concentration on the 83rd day, combination administration with PTH” value is given as “showed a urinary CTX inhibitory effect” and the “urinary CTX concentration on the 83rd day, sole administration” value is “showed a urinary CTX inhibitory effect”. The “urinary CTX inhibitory effect compared with compound (I)” value in assay [3] (sole and combination administration with PTH) is “weaker than that of compound (I)”. Moreover, the “inhibitory effect on urinary CTX compared with compound (I)” value in assay [4] is reported as “weaker than that of compound (I)”. Further, in assay [5], the “serum OC concentration (bone formation marker) at intermediate autopsy” value is listed as “decreased”. The “serum OC concentration on the 83rd day, in combination with PTH” value in assay [5] (Experiment 1, FIG. 4) was “significantly decreased serum OC concentration”.

`CN1CCS/C1=N\NC(=O)C(=O)C(NC(=O)C1CCCCCC1)C1CCOCC1.Cl` (stereo not drawn) [compound (I), N-{3-[(2Z)-2-(3-methyl-1,3-thiazolidin-2-ylidene)hydrazino]-2,3-dioxo-1-tetrahydro-2H-pyran-4-ylpropyl}cycloheptanecarboxamide hydrochloride]: the “BMD of the tibia” value in assay [1] was “inhibited the reduction of BMD of tibia caused by OVX”. In addition, in assay [1] (83 days in combination with PTH 3 μg/kg s.c.), the “effect on increase of BMD of tibia in combination with PTH” value is “greater than that of ALN in combination with PTH”. Also, in assay [2], the “BMD of the left leg tibia (4 mm slice from proximal end) at intermediate autopsy” value is on record as “showed an increasing effect of BMD in the tibia”; the “BMD of the left leg tibia on the 83rd day, in combination with PTH” value is recorded as “showed an additive effect in BMD of tibia”; the “BMD of the left leg tibia on the 83rd day, each alone” value was “suppressed the OVX-induced BMD loss in the tibia”. Moreover, in assay [3], the “urinary CTX concentration on the 83rd day, combination administration with PTH” value is recorded as “showed an inhibitory effect” and the “urinary CTX concentration on the 83rd day, sole administration” value is on record as “showed an inhibitory effect”. In addition, the “urinary CTX concentration (bone resorption marker) on the 83rd day, combination administration” value in assay [4] (in combination with PTH) is listed as “has an inhibitory effect on urinary CTX concentration”. In assay [4] (sole administration group), the “urinary CTX concentration (bone resorption marker) on the 83rd day, sole administration” value is given as “has an inhibitory effect on urinary CTX concentration”. Also, the “serum OC concentration (bone formation marker) at intermediate autopsy” value in assay [5] was “not decreased”. Moreover, the “serum OC concentration on the 83rd day, in combination with PTH” value in assay [5] (Experiment 1, FIG. 4) is given as “did not decrease the serum OC concentration significantly”.

Consider “human PTH (1-34) amide (SVSEIQLMHNLGKHLNSMERVEWLRKKLQDVHNF-NH2; UniProt P01270 32-65, looked up, fragment) [partial peptide of PTH, bone formation stimulator (APC Lot.N05129A1)]”, for which, in assay [1], the “BMD of the tibia” value is on record as “inhibited the reduction of BMD of tibia caused by OVX”. In assay [2], the “BMD of the left leg tibia on the 83rd day, each alone” value was “suppressed the OVX-induced BMD loss in the tibia”. In assay [5] (Experiment 1, FIG. 4, PTH 10 μg/kg s.c.), the “serum OC concentration on the 83rd day, PTH sole administration” value was “increased”.
